Results published in patent US9365851B2, “Spalt-like transcription factor 4 (SALL4) and uses thereof” (National University of Singapore, priority 2011, dated 2016).

How the values were obtained:
[1] = test system: SNU-398 cells; assay: Subcutaneous transplantation of peptide pre-treated SNU-398 cells into NOD/SCID mice; format: in vivo; details: for subcutaneous tumor volume / size: cells treated in vitro with 20 μM peptide
Method: Cell viability was determined 72 hours after peptide treatments. Absorbance at 490 nm is directly correlated to cell viability. Wild type functional SALL4 peptide (wt), mutant non-functional SALL4 peptide (Mut.), trichostatin A (TSA), scrambled control peptide (Scr.), wild type peptide+PTEN inhibitor SF1670 (wt+Inh.) were given to the cells at the indicated concentration. PTEN inhibitor concentration was 400 nM. (31C, 31D) Western blot analyses of the effects of peptides on PTEN, AKT, and pAKT expression on SNU-398 (31C) and SNU-387 (31D) cells 72 hours following peptide treatments. 20 μM of wt or Scr. peptide or 100 nM of TSA was used. PTEN inhibitor concentration was 400 nM. (31E) Representative images show NOD/SCID mice transplanted with Scr peptide- and wt peptide-treated SNU-398 cells (left) and the dissected subcutaneous tumors (right). Arrow indicates subcutaneous tumor. (31F) Growth curve of subcutaneous tumors (left panel) and tumor weight of tumors dissected at day 26 post-transplantation (right panel). Results are mean±s.d. n=5; * P<0.05. (31G) Representative images show NOD/SCID mice transplanted with 3 million SNU-398 cells at the left flank and treated intraperitoneally for five consecutive days with 56 mg/kg body weight TAT-Mut. peptide or 60 mg/kg body weight wt peptide (top panel) and the dissected subcutaneous tumors (bottom). (31H) Tumor weight of tumors dissected at day 18 post-transplantation and post-treatment of mice treated intraperitoneally with TAT fusion peptides as described in 5 g. Results are mean±s.d. n=5; * P<0.05.
To test the therapeutic effect of this peptide in vivo, SNU-398 cells were subjected to in vitro treatment with 20 μM of wt or Scr. peptide and transplanted the peptide-treated cells subcutaneously into the flanks of NOD/SCID mice.

[2] = test system: primary human AML cells; assay: Xenotransplantation of peptide-treated primary human AML cells into NSG mice; format: in vivo; details: 11 weeks after transplantation, cells treated with Pep-1 plus peptide
Method: FIGS. 12A-12F: Treatment of SALL4 peptide in primary human AML cells induces reduced cell viability in culture and impaired leukemic engraftment in vivo. (12A) Wild type peptide treatment reduces cell viability of human AML cells in culture, and this effect can be reversed in part by the PTEN inhibitor SF1670. 1×10^6 AML cells were treated with nothing (None), Pep-1 alone (Mock), or 20 μM wild type (wt), or scrambled peptide (scr), or wt peptide with 400 nM PTEN inhibitor SF1670 (wt+inh) or with 100 nM TSA for 48 hours, as described in the Methods. Cell viability of untreated primary AML cells is set as 100. […] Percentage of human CD45+ cells engrafted in BM, spleen (SP) and peripheral blood (PB) was determined by flow cytometry. […]
NSG (NOD.Cg-Prkdcscid Il2rgtm 1Wjl/SzJ, The Jackson Laboratory, ME, USA) mice were bred and maintained in the Children's Hospital Boston animal facility. […] The percentage of human CD45+ cells was calculated as follows: % human CD45+ cells=No. human CD45+ cells/(No. human CD45+ cells+No. mouse CD45+ cells)×100. […]
Subsequently tested was the ability of peptide treatment to inhibit the development of AML in vivo utilizing xenografts. […] In addition, the engraftment of human CD45+ cells was evaluated by flow cytometry (FIG. 12E). […]

Substance	subcutaneous tumor volume / size [1]	tumor burden (weight post-dissection) ([1]; day 26)	average engraftment of human CD45+ cells in bone marrow [2]
H-MSRRKQAKPQHI-OH [wt peptide, MSRRKQAKPQHI]	significantly reduced	the tumor load was reduced	0.5%
Scr peptide: same 12 amino acids as the wt peptide, but in a scrambled sequence; negative control (SRMRQKIHPKIQ) [reference compound]	grew into larger subcutaneous tumors	–	greater than 74%
